Species: Rattus norvegicus
Test: DrugMatrix - Regimen: Daily Repeat
Type: toxicity, organism-based, Sprague-Dawley
Design: regimen Daily Repeat, gender Male, age 6-8 weeks
Conditions: in vivo, po, route oral GAVAGE, vehicle .5 % CMC; for ABSOLUTE BASOPHIL / ABSOLUTE EOSINOPHIL / ABSOLUTE LYMPHOCYTE / ABSOLUTE MONOCYTE / ABSOLUTE SEGMENTED NEUTROPHIL / BASOPHIL / EOSINOPHIL / ERYTHROCYTE COUNT / HEMATOCRIT / HEMOGLOBIN / LEUKOCYTE COUNT / LYMPHOCYTE / MEAN CORPUSCULAR HEMOGLOBIN / MEAN CORPUSCULAR HEMOGLOBIN CONCENTRATION / MEAN CORPUSCULAR VOLUME / MONOCYTE / NEUTROPHIL / NUCLEATED RED BLOOD CELLS / PLATELET COUNT: tissue Blood; for ALANINE AMINOTRANSFERASE / ALBUMIN / ALKALINE PHOSPHATASE / ASPARTATE AMINOTRANSFERASE / BLOOD UREA NITROGEN / CARBON DIOXIDE / CHLORIDE / CHOLESTEROL / CREATINE PHOSPHOKINASE / CREATININE / GLUCOSE / LACTATE DEHYDROGENASE / LIPASE / PHOSPHORUS / POTASSIUM / SODIUM / TOTAL BILIRUBIN / TOTAL PROTEIN / URIC ACID: tissue Plasma
[1] = 50 mg/kg, 72 h, dose level Low, time 3 day
[2] = 50 mg/kg, 120 h, dose level Low, time 5 day
[3] = 350 mg/kg, 72 h, dose level High, time 3 day
[4] = 350 mg/kg, 120 h, dose level High, time 5 day

`Cc1cccc(C)c1OCC(C)N` (configuration not stated) [MEXILETINE] was tested, and the “ABSOLUTE BASOPHIL” value [1] was 0 CELLS/uL, the “ABSOLUTE EOSINOPHIL” value [1] was 76.67 CELLS/uL and the “ABSOLUTE LYMPHOCYTE” value [1] was 11625.67 CELLS/uL. For the same compound, the “ABSOLUTE MONOCYTE” value [1] was 164.33 CELLS/uL, the “ABSOLUTE SEGMENTED NEUTROPHIL” value [1] was 733.33 CELLS/uL and the BASOPHIL [1] was 0%. The EOSINOPHIL [1] was 0.67%, the “ERYTHROCYTE COUNT” value [1] was 5.83 x10E6/uL and the HEMATOCRIT [1] was 36.67%. For the same compound, the HEMOGLOBIN [1] was 13.2 G/DL, the “LEUKOCYTE COUNT” value [1] was 12.6 x10E3/uL and the LYMPHOCYTE [1] was 92.33%. For the same compound, the “MEAN CORPUSCULAR HEMOGLOBIN” value [1] was 22.63 pg, the “MEAN CORPUSCULAR HEMOGLOBIN CONCENTRATION” value [1] was 36 G/DL and the “MEAN CORPUSCULAR VOLUME” value [1] was 62.9 fL. For the same compound, the MONOCYTE [1] was 1.33%, the NEUTROPHIL [1] was 5.67% and the “NUCLEATED RED BLOOD CELLS” value [1] was 0 /100WBC. The “PLATELET COUNT” value [1] was 1579.67 x10E3/uL, the “ALANINE AMINOTRANSFERASE” value [1] was 39.67 u/L and the ALBUMIN [1] was 4.47 G/DL. The “ALKALINE PHOSPHATASE” value [1] was 347.33 u/L, the “ASPARTATE AMINOTRANSFERASE” value [1] was 70.33 u/L and the “BLOOD UREA NITROGEN” value [1] was 15 mg/dL. The “CARBON DIOXIDE” value [1] was 26.67 mmol/L, the CHLORIDE [1] was 103.33 MEQ/L and the CHOLESTEROL [1] was 73 mg/dL. For the same compound, the “CREATINE PHOSPHOKINASE” value [1] was 249.33 u/L, the CREATININE [1] was 0.18 mg/dL and the GLUCOSE [1] was 168.67 mg/dL. For the same compound, the “LACTATE DEHYDROGENASE” value [1] was 90 u/L, the LIPASE [1] was 9 u/L and the PHOSPHORUS [1] was 13.23 mg/dL. The POTASSIUM [1] was 6.67 MEQ/L, the SODIUM [1] was 144.43 MEQ/L and the “TOTAL BILIRUBIN” value [1] was 0.2 mg/dL. The “TOTAL PROTEIN” value [1] was 6 G/DL, the “URIC ACID” value [1] was 2.37 mg/dL and the “ABSOLUTE BASOPHIL” value [2] was 0 CELLS/uL. For the same compound, the “ABSOLUTE EOSINOPHIL” value [2] was 311.67 CELLS/uL, the “ABSOLUTE LYMPHOCYTE” value [2] was 17277 CELLS/uL and the “ABSOLUTE MONOCYTE” value [2] was 358.33 CELLS/uL. The “ABSOLUTE SEGMENTED NEUTROPHIL” value [2] was 1686.33 CELLS/uL, the BASOPHIL [2] was 0% and the EOSINOPHIL [2] was 1.67%. For the same compound, the “ERYTHROCYTE COUNT” value [2] was 5.61 x10E6/uL, the HEMATOCRIT [2] was 35.37% and the HEMOGLOBIN [2] was 13.43 G/DL. For the same compound, the “LEUKOCYTE COUNT” value [2] was 19.63 x10E3/uL, the LYMPHOCYTE [2] was 88% and the “MEAN CORPUSCULAR HEMOGLOBIN” value [2] was 23.97 pg. For the same compound, the “MEAN CORPUSCULAR HEMOGLOBIN CONCENTRATION” value [2] was 38 G/DL, the “MEAN CORPUSCULAR VOLUME” value [2] was 63.13 fL and the MONOCYTE [2] was 1.67%. For the same compound, the NEUTROPHIL [2] was 8.67%, the “NUCLEATED RED BLOOD CELLS” value [2] was 0 /100WBC and the “PLATELET COUNT” value [2] was 1342.33 x10E3/uL. For the same compound, the “ALANINE AMINOTRANSFERASE” value [2] was 52 u/L, the ALBUMIN [2] was 4.23 G/DL and the “ALKALINE PHOSPHATASE” value [2] was 414.33 u/L. The “ASPARTATE AMINOTRANSFERASE” value [2] was 89 u/L, the “BLOOD UREA NITROGEN” value [2] was 18.67 mg/dL and the “CARBON DIOXIDE” value [2] was 24.33 mmol/L. The CHLORIDE [2] was 106.67 MEQ/L, the CHOLESTEROL [2] was 62 mg/dL and the “CREATINE PHOSPHOKINASE” value [2] was 325.67 u/L. For the same compound, the CREATININE [2] was 0.19 mg/dL, the GLUCOSE [2] was 163.67 mg/dL and the “LACTATE DEHYDROGENASE” value [2] was 469 u/L. It also gave an LIPASE [2] of 8.67 u/L, a PHOSPHORUS [2] of 12.77 mg/dL and a POTASSIUM [2] of 6.24 MEQ/L. The SODIUM [2] was 144.53 MEQ/L, the “TOTAL BILIRUBIN” value [2] was 0.3 mg/dL and the “TOTAL PROTEIN” value [2] was 6.4 G/DL. The “URIC ACID” value [2] was 1.83 mg/dL, the “ABSOLUTE BASOPHIL” value [3] was 0 CELLS/uL and the “ABSOLUTE EOSINOPHIL” value [3] was 77.33 CELLS/uL. The “ABSOLUTE LYMPHOCYTE” value [3] was 8910.33 CELLS/uL, the “ABSOLUTE MONOCYTE” value [3] was 236 CELLS/uL and the “ABSOLUTE SEGMENTED NEUTROPHIL” value [3] was 643 CELLS/uL. For the same compound, the BASOPHIL [3] was 0%, the EOSINOPHIL [3] was 0.67% and the “ERYTHROCYTE COUNT” value [3] was 6.04 x10E6/uL. For the same compound, the HEMATOCRIT [3] was 38.2%, the HEMOGLOBIN [3] was 14.37 G/DL and the “LEUKOCYTE COUNT” value [3] was 9.87 x10E3/uL. For the same compound, the LYMPHOCYTE [3] was 90.33%, the “MEAN CORPUSCULAR HEMOGLOBIN” value [3] was 23.87 pg and the “MEAN CORPUSCULAR HEMOGLOBIN CONCENTRATION” value [3] was 37.63 G/DL. For the same compound, the “MEAN CORPUSCULAR VOLUME” value [3] was 63.37 fL, the MONOCYTE [3] was 2.33% and the NEUTROPHIL [3] was 6.67%. The “NUCLEATED RED BLOOD CELLS” value [3] was 0.33 /100WBC, the “PLATELET COUNT” value [3] was 1205.33 x10E3/uL and the “ALANINE AMINOTRANSFERASE” value [3] was 60.67 u/L. For the same compound, the ALBUMIN [3] was 5.13 G/DL, the “ALKALINE PHOSPHATASE” value [3] was 464.67 u/L and the “ASPARTATE AMINOTRANSFERASE” value [3] was 73.67 u/L. For the same compound, the “BLOOD UREA NITROGEN” value [3] was 13 mg/dL, the “CARBON DIOXIDE” value [3] was 27.33 mmol/L and the CHLORIDE [3] was 102 MEQ/L. For the same compound, the CHOLESTEROL [3] was 86 mg/dL, the “CREATINE PHOSPHOKINASE” value [3] was 277.67 u/L and the CREATININE [3] was 0.21 mg/dL. For the same compound, the GLUCOSE [3] was 139.67 mg/dL, the “LACTATE DEHYDROGENASE” value [3] was 118 u/L and the LIPASE [3] was 9 u/L. It also gave a PHOSPHORUS [3] of 10.8 mg/dL, a POTASSIUM [3] of 5.61 MEQ/L and an SODIUM [3] of 145.8 MEQ/L. For the same compound, the “TOTAL BILIRUBIN” value [3] was 0.23 mg/dL, the “TOTAL PROTEIN” value [3] was 7.07 G/DL and the “URIC ACID” value [3] was 0.77 mg/dL. For the same compound, the “ABSOLUTE BASOPHIL” value [4] was 0 CELLS/uL, the “ABSOLUTE EOSINOPHIL” value [4] was 203 CELLS/uL and the “ABSOLUTE LYMPHOCYTE” value [4] was 12514 CELLS/uL. For the same compound, the “ABSOLUTE MONOCYTE” value [4] was 136 CELLS/uL, the “ABSOLUTE SEGMENTED NEUTROPHIL” value [4] was 747 CELLS/uL and the BASOPHIL [4] was 0%. For the same compound, the EOSINOPHIL [4] was 1.5%, the “ERYTHROCYTE COUNT” value [4] was 6.13 x10E6/uL and the HEMATOCRIT [4] was 38%. For the same compound, the HEMOGLOBIN [4] was 14.05 G/DL, the “LEUKOCYTE COUNT” value [4] was 13.6 x10E3/uL and the LYMPHOCYTE [4] was 92%. The “MEAN CORPUSCULAR HEMOGLOBIN” value [4] was 22.9 pg, the “MEAN CORPUSCULAR HEMOGLOBIN CONCENTRATION” value [4] was 37 G/DL and the “MEAN CORPUSCULAR VOLUME” value [4] was 62.05 fL. For the same compound, the MONOCYTE [4] was 1%, the NEUTROPHIL [4] was 5.5% and the “NUCLEATED RED BLOOD CELLS” value [4] was 0 /100WBC. The “PLATELET COUNT” value [4] was 1422.5 x10E3/uL, the “ALANINE AMINOTRANSFERASE” value [4] was 55 u/L and the ALBUMIN [4] was 4.35 G/DL. The “ALKALINE PHOSPHATASE” value [4] was 464 u/L, the “ASPARTATE AMINOTRANSFERASE” value [4] was 93.5 u/L and the “BLOOD UREA NITROGEN” value [4] was 15 mg/dL. The “CARBON DIOXIDE” value [4] was 24 mmol/L, the CHLORIDE [4] was 105 MEQ/L and the CHOLESTEROL [4] was 59 mg/dL. For the same compound, the “CREATINE PHOSPHOKINASE” value [4] was 283.5 u/L, the CREATININE [4] was 0.22 mg/dL and the GLUCOSE [4] was 182.5 mg/dL. The “LACTATE DEHYDROGENASE” value [4] was 152 u/L, the LIPASE [4] was 8.5 u/L and the PHOSPHORUS [4] was 12.7 mg/dL. For the same compound, the POTASSIUM [4] was 5.83 MEQ/L, the SODIUM [4] was 145.35 MEQ/L and the “TOTAL BILIRUBIN” value [4] was 0.2 mg/dL. For the same compound, the “TOTAL PROTEIN” value [4] was 6.4 G/DL and the “URIC ACID” value [4] was 2 mg/dL.
